# Paper PMC3121796 (PLoS ONE, 2011)
# Positions of bridges follow the written chain, without caps; N, C: chain ends. Residues, ends and D or L forms follow the SMILES beside them. No end group written: not given here.
# Tests used:
# human Nav1.7 (hNav1.7) = target: T1, human Nav1.7 (hNav1.7) (Homo sapiens, UniProt Q15858); assay: whole-cell patch-clamp assay, inhibition of hNav1.7 currents; format: cell-based; conditions: 1 µmole/L toxin, HEK293 cells expressing hNav1.7, depolarization to −10 mV, room temperature, one range given for both toxins
# T1 construct: expressed in transfected cells; host or cells: HEK293
# T1 sequence (Q15858 whole entry): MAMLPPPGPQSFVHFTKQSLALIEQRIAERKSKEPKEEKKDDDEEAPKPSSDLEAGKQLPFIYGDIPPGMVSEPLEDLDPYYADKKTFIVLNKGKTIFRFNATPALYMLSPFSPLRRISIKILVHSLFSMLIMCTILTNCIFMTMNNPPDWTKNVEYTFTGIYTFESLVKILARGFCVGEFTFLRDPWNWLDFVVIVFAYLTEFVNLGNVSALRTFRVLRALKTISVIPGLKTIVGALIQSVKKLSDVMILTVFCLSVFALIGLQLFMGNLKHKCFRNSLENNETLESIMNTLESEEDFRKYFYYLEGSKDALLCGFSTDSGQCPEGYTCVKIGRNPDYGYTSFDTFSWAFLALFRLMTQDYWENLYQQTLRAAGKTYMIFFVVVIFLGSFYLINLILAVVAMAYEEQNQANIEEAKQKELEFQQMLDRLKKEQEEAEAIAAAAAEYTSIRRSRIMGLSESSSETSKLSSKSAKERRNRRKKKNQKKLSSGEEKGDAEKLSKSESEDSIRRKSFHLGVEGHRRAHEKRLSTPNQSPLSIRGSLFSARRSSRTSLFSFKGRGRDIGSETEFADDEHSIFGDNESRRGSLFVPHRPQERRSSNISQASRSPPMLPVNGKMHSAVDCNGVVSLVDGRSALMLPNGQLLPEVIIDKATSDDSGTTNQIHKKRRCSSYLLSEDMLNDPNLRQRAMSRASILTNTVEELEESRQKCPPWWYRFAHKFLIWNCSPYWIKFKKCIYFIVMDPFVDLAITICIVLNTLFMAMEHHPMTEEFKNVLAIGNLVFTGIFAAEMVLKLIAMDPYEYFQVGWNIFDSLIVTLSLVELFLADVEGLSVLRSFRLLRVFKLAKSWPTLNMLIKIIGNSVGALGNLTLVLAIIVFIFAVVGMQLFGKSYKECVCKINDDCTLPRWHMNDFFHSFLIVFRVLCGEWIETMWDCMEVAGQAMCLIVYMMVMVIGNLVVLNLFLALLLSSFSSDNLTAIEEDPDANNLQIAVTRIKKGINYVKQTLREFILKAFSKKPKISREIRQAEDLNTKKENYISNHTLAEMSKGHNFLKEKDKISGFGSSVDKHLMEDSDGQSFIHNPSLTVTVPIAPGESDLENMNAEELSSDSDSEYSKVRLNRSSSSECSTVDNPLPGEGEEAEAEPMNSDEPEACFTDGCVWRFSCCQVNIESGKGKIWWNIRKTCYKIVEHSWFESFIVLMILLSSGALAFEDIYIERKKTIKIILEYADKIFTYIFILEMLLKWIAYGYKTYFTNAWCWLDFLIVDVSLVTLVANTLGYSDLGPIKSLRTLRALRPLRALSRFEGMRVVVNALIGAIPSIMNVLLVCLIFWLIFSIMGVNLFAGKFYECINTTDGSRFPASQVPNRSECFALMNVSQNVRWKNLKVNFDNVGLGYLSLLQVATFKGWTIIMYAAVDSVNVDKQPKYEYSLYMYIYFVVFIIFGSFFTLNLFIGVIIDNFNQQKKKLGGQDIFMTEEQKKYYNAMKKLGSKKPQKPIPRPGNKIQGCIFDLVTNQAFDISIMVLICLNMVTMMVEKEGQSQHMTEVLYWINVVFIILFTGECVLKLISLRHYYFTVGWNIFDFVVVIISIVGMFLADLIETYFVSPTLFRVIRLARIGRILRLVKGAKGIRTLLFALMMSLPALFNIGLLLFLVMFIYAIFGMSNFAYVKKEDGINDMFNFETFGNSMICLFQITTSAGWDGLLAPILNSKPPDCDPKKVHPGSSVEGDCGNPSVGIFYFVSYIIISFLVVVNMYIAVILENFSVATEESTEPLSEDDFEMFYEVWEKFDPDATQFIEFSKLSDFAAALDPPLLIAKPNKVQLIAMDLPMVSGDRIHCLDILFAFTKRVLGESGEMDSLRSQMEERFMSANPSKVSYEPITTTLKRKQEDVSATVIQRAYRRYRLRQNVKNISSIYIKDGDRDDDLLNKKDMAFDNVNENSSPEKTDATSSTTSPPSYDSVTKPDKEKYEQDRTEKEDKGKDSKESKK
# [1] = cited from earlier work
# Excerpt: It was reported that the cytoplasm of E. coli cells contains high levels of reduced glutathione (approximately 5 mmole/L); therefore, the potential of ...
compound,measurement,setting,value
"CC(C)C[C@H](NC(=O)[C@H](CCCCN)NC(=O)[C@H](Cc1c[nH]c2ccccc12)NC(=O)[C@H](CCCCN)NC(=O)[C@@H]1CSSC[C@@H]2NC(=O)[C@H](CCC(=O)O)NC(=O)[C@H](CC(N)=O)NC(=O)[C@H](CCCCN)NC(=O)CNC(=O)[C@@H]3CCCN3C(=O)[C@H]([C@@H](C)O)NC(=O)[C@@H]3CSSC[C@H](NC(=O)[C@H](C(C)C)NC(=O)[C@H](CCCNC(=N)N)NC(=O)[C@H](CC(N)=O)NC(=O)[C@@H]4CCCN4C(=O)[C@H](CSSC[C@H](NC(=O)[C@H](C)N)C(=O)N[C@@H](CCCCN)C(=O)NCC(=O)N[C@@H](C(C)C)C(=O)N[C@@H](Cc4ccccc4)C(=O)N[C@@H](CC(=O)O)C(=O)N[C@@H](C)C(=O)N3)NC2=O)C(=O)N[C@@H](CO)C(=O)N[C@@H](CC(=O)O)C(=O)N[C@@H](CCCCN)C(=O)N[C@@H](Cc2c[nH]cn2)C(=O)N[C@@H](CCCCN)C(=O)N[C@@H](Cc2c[nH]c3ccccc23)C(=O)N1)C(=O)O [rHWTX-I] (H-ACKGVFDACTPGKNECCPNRVCSDKHKWCKWKL-OH; disulfide 2-17, 9-22, 16-29)",hNav1.7 current reduced to (remaining current),human Nav1.7 (hNav1.7),33–36%
"rHWTX-I (GST or KIS fusion, cytoplasm): earlier rHWTX-I expressed fused with GST or ketosteroid isomerase (KIS) in the cytoplasm of E. coli cells (ACKGVFDACTPGKNECCPNRVCSDKHKWCKWKL; not fully specified; cysteine pairing not given here; UniProt P56676 49-81, looked up)",bioactivity after release by enzyme digestion,"[1]; GST fusion expressed in cytoplasm of E. coli, no disulfide bridge formed, ref [8]",very low bioactivity
same,bioactivity after reduction/renaturation,"[1]; released from GST or KIS fusion protein expressed in cytoplasm of E. coli, after reduction/renaturation treatment, ref [8], [9]",fully restore the bioactivities
same,bioactivity before reduction/renaturation,"[1]; released from GST or KIS fusion protein expressed in cytoplasm of E. coli, before reduction/renaturation treatment, ref [8], [9]",extremely low bioactivity
"rHWTX-I (baculovirus): earlier rHWTX-I expressed in a baculovirus system (ACKGVFDACTPGKNECCPNRVCSDKHKWCKWKL; ends and bridges not checked; cysteine pairing not given here; UniProt P56676 49-81, looked up)",bioactivity of baculovirus-expressed peptide,"[1]; baculovirus system, ref [11]",demonstrated natural bioactivities
